Results published in US10016382B2, “Method for decreasing skeletal muscle damage and/or oxidative stress in mammals” (LONZA INC., priority 2014, dated 2018).
Marks after values point to notes of the source that are not given here.

Columns and labels:
[1] = tested on: total antioxidant capacity (TAC); assay: Serum total antioxidant capacity (TAC), Example 1; assay type: in vivo, dog; conditions: for Change in TAC, post-run minus pre-run: following 15 mile long run at 13 wk, mean ± SEM
Procedure: Blood Analysis: Serum samples were taken at three different times from each dog during the 90 day period. The blood samples were collected as follows: 1.) just prior to scanning each dog for body composition at the beginning of the study, 2.) prior to the long run on the 13th week, and 3.) following the long run on the 13th week. The serum samples were analyzed for Phosphocreatine Kinase and Canine Myoglobin to determine the amount of muscle protein leakage that occurred following the long run and TBARS and Total Antioxidant Capacity (TAC) were determined to evaluate the antioxidant status of each of the test dogs during the exercise program. The final blood sample was taken 24 hr after the long run to obtain maximum protein leakage based on previous similar types of exercise research with human athletes. Biomarkers and Assay Methods: Blood was drawn from each dog using a serum separator tube at three different times during the 90 day period: 1.) just prior to scanning each dog for body composition at the beginning of the study, 2.) prior to the long run on the 13th week, and 3.) following the long run on the 13th week. The final blood sample was taken 24 hr after the long run to obtain maximum protein leakage based on previous similar types of exercise research with human athletes. Each time after the blood was drawn it was allowed to clot before being centrifuged for 15 min at 2000 g at 4° C. Serum was aliquoted into 1.5 mL microcentrifuge tubes and stored at −80° C. until assays were ran following the end of the study. Creatine kinase (CK) and canine myoglobin were measured to determine the amount of muscle protein leakage that occurred following the long run. Thiobarbituric acid reactive substances (TBARS) and total antioxidant capacity (TAC) were measured to evaluate the antioxidant status of each of the test dogs during the exercise program. Serum samples were analyzed for total antioxidant capacity (TAC) and thiobarbituric acid reactive substances (TBARS) using commercially available colorimetric kits supplied by Cayman Chemical Company (Ann Arbor, Mich.) per manufacturer instructions. Serum canine myoglobin levels were determined using a commercially available ELISA supplied by Innovate Research (Novi, Mich.) per manufacturer instructions. Creatine kinase activity was determined colorimetrically using a commercially available kit supplied by BioVision (San Francisco, Calif.).

skeletal muscle = assay: Fractional breakdown rate (FBR) of skeletal muscle, 3-methylhistidine, Example 2 part two; assay type: in vivo, dog; conditions: for FBR: run, muscle samples
Excerpt: Twenty-six Labrador Retrievers ranging in age from 1.5 to 4.5 years were chosen from part one of the study and were fed for an additional 60 days following the termination of part one of the study. Test dogs remained in their previous treatment groups. Measurements on Actical movements/kg BW/mile endurance runs obtained during part one of the study were utilized to ensure that both the control and the L-carnitine groups were equal for performance potential. The lean body mass of the test dogs was determined by scanning with the DEXA as an additional measure for ensuring equal groups. Twelve dogs (6 males and 6 females) were assigned to each treatment group. Two additional dogs (1 male and 1 female) were fed the low carnitine basal diet of the control group and were used as controls that were not enriched with isotopes during the study; these two control dogs were used to measure the natural amount of 15N Phe in the sample. During the 60 day trial, the test dogs were fed low-carnitine basal diets with or without L-carnitine supplementation in a manner analogous to that of part one of the study. For three days prior to the final muscle biopsy and blood collection, all test dogs were feed an “all vegetarian plus egg” diet from Purina LabDiet that had nutrient specifications that were equivalent to that of the low carnitine basal diet. […] At the end of the 60 day training program, 24 of the dogs (12 resting and 12 running) were infused with a bolus dose of 15N Phe. […] Forty-five minutes after infusion, a 5 mm Bergstrom muscle biopsy needle was used to take a biopsy of the biceps femoris muscle. The muscle samples were quickly frozen in liquid nitrogen and placed in a −80° C. freezer for later analysis]. Twenty-four hours after the resting dogs were infused with 15N Phe, the remaining 12 dogs (6 non-carnitine; 3 male and 3 female and 6 L-carnitine; 3 male and 3 female) were run for a 15 mile endurance run. Following a 30 minute period of measured physiological recovery (heart rate and body temperature), test dogs that completed the 15 mile run were infused with a 2% 15N Phe solution as described above; muscle biopsies were taken 45 minutes after infusion. Blood samples were taken from the carotid artery for each test dog and analyzed for 3 MH. Three days prior to taking the blood samples, the dogs were fed the “all vegetable plus egg” non-meat diet from Purina LabDiet to ensure that the 3 MH found in the blood represented the skeletal muscle protein breakdown. To process the samples, the acid-soluble fraction containing free amino acids was removed by addition of 2% (w/v) perchloric acid. After homogenization, samples were centrifuged at 3,000×g, and the supernatant, containing free amino acids, was removed. The protein precipitate was washed three times with 2% perchloric acid before being hydrolyzed in 6N HCL. The supernatant and precipitate, respectively, were then run through an ion-exchange column packed with Dowex 50WX8-200. Phenylalanine and 3-methylhistidine (3-MH) were eluted with 2 mL of 4N NH4OH and 1 mL of nanopure H2O into a new vial and then dried under vacuum. The tert-butyldimethylsilyl (tBDMS) derivative was formed by adding 800 μL of C2CH3CN-MTBSTFA (1:1) and incubating at 110° C. for 60 minutes. The same mass spectrometer was used to determine 3-MH. […] The 238 m/z fragment of 3-MH was monitored. The muscle samples were analyzed for the fractional breakdown rate (FBR). FBR was calculated as kd=3-MH daily excretion/3-MH muscle pool×100. […]

Compound: C[N+](C)(C)C[C@H](O)CC(=O)[O-] [L-carnitine]
- TAC Least Sq Mean ([1]; Baseline): 0.1066 mM Trolox Equiv
- TAC Least Sq Mean ([1]; Baseline, F): 0.1064 mM Trolox Equiv
- TAC Least Sq Mean ([1]; Baseline, M): 0.1067 mM Trolox Equiv
- TAC, serum, Mean ([1]; Ex.1, 250 mg/d, Baseline, both sexes): 0.107 mM Trolox Equiv
- TAC, serum, Mean ([1]; Ex.1, 250 mg/d, Baseline, females): 0.106 mM Trolox Equiv
- TAC, serum, Mean ([1]; Ex.1, 250 mg/d, Baseline, males): 0.107 mM Trolox Equiv
- TAC, serum, Mean ([1]; Ex.1, 250 mg/d, Post-run, both sexes): 0.087 mM Trolox Equiv
- TAC, serum, Mean ([1]; Ex.1, 250 mg/d, Post-run, females): 0.069 mM Trolox Equiv
- TAC, serum, Mean ([1]; Ex.1, 250 mg/d, Post-run, males): 0.102 mM Trolox Equiv
- TAC, serum, Mean ([1]; Ex.1, 250 mg/d, Pre-run, both sexes): 0.118 mM Trolox Equiv
- TAC, serum, Mean ([1]; Ex.1, 250 mg/d, Pre-run, females): 0.106 mM Trolox Equiv
- TAC, serum, Mean ([1]; Ex.1, 250 mg/d, Pre-run, males): 0.128 mM Trolox Equiv
- Effect on TAC of the test dogs ([1]; Ex.1, 250 mg/d, during the study, vs control): did not have a significant effect
- Change in TAC, post-run minus pre-run ([1]; Ex.1, 250 mg/d, both sexes): −0.03 ± 0.01 n = 20 mM Trolox Equiv
- Change in TAC, post-run minus pre-run ([1]; Ex.1, 250 mg/d, females): −0.04 ± 0.01 n = 9 mM Trolox Equiv
- Change in TAC, post-run minus pre-run ([1]; Ex.1, 250 mg/d, males): −0.03 ± 0.01 n = 11 mM Trolox Equiv
- TAC Least Sq Mean ([1]; Post-run): 0.08522 mM Trolox Equiv
- TAC Least Sq Mean ([1]; Post-run, F): 0.06866 mM Trolox Equiv
- TAC Least Sq Mean ([1]; Post-run, M): 0.1018 mM Trolox Equiv
- TAC Least Sq Mean ([1]; Pre-run): 0.1171 mM Trolox Equiv
- TAC Least Sq Mean ([1]; Pre-run, F): 0.1063 mM Trolox Equiv
- TAC Least Sq Mean ([1]; Pre-run, M): 0.128 mM Trolox Equiv
- TAC Least Sq Mean ([1]; Treatment * Sex, F): 0.1064 mM Trolox Equiv
- TAC Least Sq Mean ([1]; Treatment * Sex, M): 0.1067 mM Trolox Equiv
- TAC Least Sq Mean ([1]; Treatment level, all dogs): 0.1066 mM Trolox Equiv
- Total Antioxidant capacity, mixed model Estimate, term Time[Post-run-Pre-run] * Treatment[L-carnitine] ([1]; serum, model term): −0.001428
- Total Antioxidant capacity, mixed model Estimate, term Time[Post-run-Pre-run] * Treatment[L-carnitine] * Sex[F] ([1]; serum, model term): −0.001227
- Total Antioxidant capacity, mixed model Estimate, term Time[Pre-run-Baseline] * Treatment[L-carnitine] ([1]; serum, model term): −0.00085
- Total Antioxidant capacity, mixed model Estimate, term Time[Pre-run-Baseline] * Treatment[L-carnitine] * Sex[F] ([1]; serum, model term): 0.001958
- Total Antioxidant capacity, mixed model Estimate, term Treatment[L-carnitine] ([1]; serum, model term): 0.001356
- Total Antioxidant capacity, mixed model Estimate, term Treatment[L-carnitine] * Sex[F] ([1]; serum, model term): 0.001671
- Fractional Breakdown Rate (FBR) of muscle samples (skeletal muscle; Ex.2 part two, 250 mg/d, adjusted for gender and exercise state): 1.92%
- FBR (% protein breakdown rate/day) of skeletal muscle (skeletal muscle; Ex.2 part two, 250 mg/d, exercised females (15 mile endurance run)): 3.26%
- FBR of skeletal proteins (skeletal muscle; Ex.2 part two, 250 mg/d, running males): 1.26%
- FBR (skeletal muscle; Female): 3.26^a %
- FBR (skeletal muscle; Male): 1.26^a %
